The text below walks through data of patent US11026910B2, “α- and γ-truxillic acid derivatives and pharmaceutical compositions thereof” (The Research Foundation for The State University of New York, priority 2012, dated 2021).

Assay [1] deals with T1, FABP5 (Homo sapiens, UniProt Q01469).
T1 construct: made in house
Kind of assay: High throughput fluorescence displacement assay with NBD-stearate. It is filed as binding. Conditions: stated in words only. Here is the method: FABP5 (30 μg), NBD-stearate (1 μM), and a competitor test compound were incubated in 30 mM Tris-HCl, 100 mM NaCl buffer (pH 7.6). […] The initial assay was run with buffer (30 mM Tris-HCl buffer), negative controls (buffer and NBD-stearate), positive controls (buffer, NBD-stearate, FABP5), and experimental wells with a variable test compound added (arachidonic acid or one of the 48 test compounds) at 10 μM. […] The Kd of NBD-stearate for FABP5 had been determined previously through incubating FABP5 with increasing concentrations of NBD-stearate.

Assay [2] deals with male C57Bl6 mice. Conditions: literature SAR study (Chi 2005); cited from earlier work.
For assay [3], the target named is T1, FABP5. Conditions: cited from earlier work.
Another assay concerns the target FABP7 (Homo sapiens, UniProt O15540). Conditions: natural substrate; read-out: Ki against FABP7; cited from earlier work.
The subject of assay [4] is male C57Bl6 mice. Kind of assay: Formalin test. The format is in vivo. Here is the method: (§1) We used male C57Bl6 mice (22-30 g, Taconic Farms) for all experiments. The animals were group housed at room temperature and kept on a 12:12 hour light:dark cycle with ad libitum access to water and food. The animals were habituated to the experimental room for one week before testing. All experiments were approved by the Stony Brook University Institutional Animal Care and Use Committee. The experimenter was blinded to the treatment conditions of each animal.
Mice were habituated to the observation chamber (Plexiglas box, 25 cm×25 cm×25 cm) for 30 min prior to formalin injection. The mice subsequently received an injection of formalin (2.5% in saline, 20 μl) into the plantar surface of the right hind paw using a 27 gauge needle. The animals were immediately placed back into the observation, chamber and nocifensive behavior (time spent licking or biting the paw) was recorded for 60 min. The formalin test consists of two phases with the first phase (0-5 min) reflecting nociceptor activation and the second phase (15-45 min) reflecting an inflammatory pain response.
(§2) Behavioral data are presented as means±S.E.M. for the vehicle and inhibitor-treated groups, each consisting of at least 6 animals. Statistical significance between vehicle and inhibitor groups was determined using unpaired t-tests or one-way ANOVA followed by Dunnett's post hoc analysis. In all cases, differences of p<0.05 were considered significant.

Assay [5] concerns male C57Bl6 mice. As to the kind of experiment: Carrageenan-induced paw edema and thermal hyperalgesia. Conditions: 20 mg/kg, i.p. (FIG. 16A). It is filed as in vivo. Here is the method: as §1
Paw edema was induced by injecting 1% λ-carrageenan (20 μl, in sterile saline) into the plantar surface of the left hind paw and a control solution of saline into the right hind paw using a 27 gauge needle. Paw diameters were measured before carrageenan injection and 4 hours after injection using digital electronic calipers (Fisher) and expressed to the nearest ±0.01 mm. […] The cannabinoid receptor antagonists, rimonabant and SR144528 (3 mg/kg, i.p.), in ethanol:emulphor:saline (1:1:18), were injected 15 min before the FABP inhibitor. Edema is reported as the change in paw diameter at 4 hr over the baseline. Changes in paw diameter of saline-injected contralateral paws were negligible. Thermal hyperalgesia measured the latency to withdraw the paw from a focused beam of radiant heat applied to the plantar surface of the hind paw using a Hargreaves plantar apparatus (Ugo Basile) set at an intensity of 3.0. For each mouse, the average latencies consisted of three trials spaced at least 5 minutes apart. The mice were habituated to the test chamber for 30 min. The cutoff time was set at 30 sec.
as §2

Another assay deals with FABP4 (Homo sapiens, UniProt P15090). Conditions: McDonnell 2006; read-out: Ki against FABP4 (1,8-ANS displacement); cited from earlier work.
Chain of FABP4 (P15090 whole entry, species assumed): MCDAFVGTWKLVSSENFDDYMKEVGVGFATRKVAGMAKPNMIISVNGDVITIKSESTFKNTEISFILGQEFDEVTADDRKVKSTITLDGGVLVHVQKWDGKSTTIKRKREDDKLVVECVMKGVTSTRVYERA
For assay [6] the following is noted: literature; cited from earlier work.

pKd, pKi: −log10 of the molar value.

T1 sequence (Q01469 whole entry, species assumed): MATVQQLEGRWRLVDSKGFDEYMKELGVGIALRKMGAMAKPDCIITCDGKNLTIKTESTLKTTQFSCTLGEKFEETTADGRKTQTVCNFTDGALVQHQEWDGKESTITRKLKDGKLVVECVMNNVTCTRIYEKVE
Chain of FABP7 (O15540 whole entry, species assumed): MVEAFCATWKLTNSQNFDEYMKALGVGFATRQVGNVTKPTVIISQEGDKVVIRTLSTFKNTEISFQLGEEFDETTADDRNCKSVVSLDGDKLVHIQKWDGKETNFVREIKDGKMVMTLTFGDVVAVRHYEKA

In the case of `O=C(O)[C@H]1[C@H](c2ccccc2)[C@H](C(=O)Nc2cccc3ccccc23)[C@H]1c1ccccc1` (stereo in doubt) [Compound 53, 3-(naphthalen-1-ylcarbamoyl)-2,4-diphenylcyclobutanecarboxylic Acid], the FABP inhibition activity result on FABP5 [1] is recorded as “analogous FABP inhibition activity to Compound 26”. As for `O=C(O)C1C(c2ccccc2)C(C(=O)O)C1c1ccccc1` (stereo not drawn) [α-truxillic acid, α-2,4-diphenyl-cyclobutane-1,3-dicarboxylic Acid], the “antinociception in early and late stage pain, formalin induced mouse models” value in the assay with male C57Bl6 mice [2] was “best antinociceptive agent in both early and late stage pain”. On to `CCCCC/C=C\C/C=C\C/C=C\C/C=C\CCCC(=O)O` [arachidonic acid], for which the pKi on FABP5 [3] (published value, read-out: Ki against FABP5, published / previously determined) was 6.89.

Regarding `CCCCCCCC/C=C\CCCCCCCC(=O)O` [oleic acid], the pKi on FABP7 was 6.46. With `CCCCCCC(CCCCCCCCCCC(=O)O)N(C)c1ccc([N+](=O)[O-])c2nonc12` (stereo not shown) [NBD-stearate, 12-N-methyl-(7-nitrobenz-2-oxa-1,3-diazo) aminostearic acid], the pKd (usually the negative decadic logarithm of the Kd, by convention in mol/L) on FABP5 [3] (one site binding analysis, determined previously (Kaczocha 2012), read-out: Kd of NBD-stearate for FABP5) was 6.80. Consider `O=C(O)C1C(c2ccccc2)C(C(=O)Oc2cccc3ccccc23)C1c1ccccc1` (stereo not shown) [Compound 49, γ-2,4-diphenyl-cyclobutane-1,3-dicarboxylic Acid mono-(1-napthyl) Ester], for which the “results in formalin induced mice models” value in the assay with male C57Bl6 mice [4] (mouse, in vivo) was “excellent results”. For the compound `O=C(O)[C@H]1[C@H](c2ccccc2)[C@H](C(=O)Oc2ccc3ccccc3c2)[C@H]1c1ccccc1` (stereo in doubt) [Compound 54, 3-((naphthalen-2-yloxy)carbonyl)-2,4-diphenylcyclobutanecarboxylic Acid], the FABP inhibition activity result on FABP5 [1] is “analogous FABP inhibition activity to Compound 26”. In the assay with male C57Bl6 mice [5], the “carrageenan-induced paw edema, 24 hrs after inhibitor administration” value is listed as “reduced” and the “carrageenan-induced thermal hyperalgesia, 24 hrs after inhibitor administration” value is “reduced”. Moreover, in the assay on male C57Bl6 mice [4] (FIG. 16B), the “first phase of formalin-induced nociception” value is listed as “reduce” and the “second phase of formalin-induced nociception” value was “reduce”. As for `O=C(O)[C@@H](O)c1cccc(OCc2ccccc2Cl)c1OCc1ccccc1Cl` [BMS480404], the pKi on FABP4 was 8.60. Take `COc1cc([C@H]2[C@H](C(=O)O[C@@H]3C[C@@H]4[C@@H](CN(C)C[C@@H]4C)[C@@H]3C)[C@H](c3ccc(O)c(OC)c3)[C@H]2C(=O)O[C@@H]2C[C@@H]3[C@@H](CN(C)C[C@@H]3C)[C@@H]2C)ccc1O` [(−)-incarvillateine]: in assay [6], the antinociceptive properties result is given as “antinociceptive properties on the same level as morphine”.
